Data reported in the supplement of paper PMC10307832.

Columns and labels:
Assay in all cases: relative viability (nuclei count vs DMSO), 5 days (fraction); higher = more cells survive
LC-2-ad = test system: LC-2-ad
In short: (§1)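 Nuclei were stained with Hoechst during a one-step fixation (final 0.05% Triton X-100, 1% formaldehyde, 1 ug/ml Hoechst) carried out 5 days after dosing, then counted on 4× images. The cells, lung cancer lines in 1536-well plates, had been dosed by pin tool the day after seeding with one drug alone or a fixed anchor-drug dose plus five library-drug doses (not always all listed) in √10 steps. Relative viability is the nuclei count in treated wells divided by that in vehicle wells, and each value is the median of duplicate plates.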

LU99A = test system: LU99A
In short: as §1

NCI-H650 = test system: NCI-H650
In short: as §1

A-427 = test system: A-427
In short: as §1

NCI-H838 = test system: NCI-H838
In short: as §1

NCI-H2228 = test system: NCI-H2228
In short: as §1

LOU-NH91 = test system: LOU-NH91
In short: as §1

SW 1573 = test system: SW 1573
In short: as §1

RERF-LC-KJ = test system: RERF-LC-KJ
In short: as §1

NCI-H460 = test system: NCI-H460
In short: as §1

NCI-H1666 = test system: NCI-H1666
In short: as §1

NCI-H1993 = test system: NCI-H1993
In short: as §1

NCI-H1915 = test system: NCI-H1915
In short: as §1

PC-3 [JPC-3] = test system: PC-3 [JPC-3]
In short: as §1

NCI-H520 = test system: NCI-H520
In short: as §1

IA-LM = test system: IA-LM
In short: as §1

NCI-H1650 = test system: NCI-H1650
In short: as §1

NCI-H1355 = test system: NCI-H1355
In short: as §1

EKVX = test system: EKVX
In short: as §1

NCI-H2347 = test system: NCI-H2347
In short: as §1

LCLC-97TM1 = test system: LCLC-97TM1
In short: as §1

BEN = test system: BEN
In short: as §1

NCI-H23 = test system: NCI-H23
In short: as §1

In the case of `CCCCCCCCCCCC1=C(O)C(=O)C=C(O)C1=O` [Embelin] + CC(C)C[C@H](NC(=O)[C@H](Cc1ccccc1)NC(=O)c1cnccn1)B(O)O [Bortezomib] (partner 0.002 µM), the relative viability (LC-2-ad; first compound 0.08 µM) is reported as 0.959, the relative viability (LC-2-ad; first compound 0.8 µM) is reported as 1.1 and the relative viability (LC-2-ad; first compound 2.53 µM) is reported as 1.05. The relative viability (LC-2-ad; first compound 8 µM) was 1.02, the relative viability (LU99A; first compound 0.08 µM) was 1.37 and the relative viability (LU99A; first compound 0.8 µM) was 1.23. For the same molecule, the relative viability (LU99A; first compound 2.53 µM) was 1.1, the relative viability (LU99A; first compound 8 µM) was 1.07 and the relative viability (NCI-H650; first compound 0.08 µM) was 0.64. The relative viability (NCI-H650; first compound 0.8 µM) was 1, the relative viability (NCI-H650; first compound 2.53 µM) was 0.668 and the relative viability (NCI-H650; first compound 8 µM) was 0.453. It also gave a relative viability (A-427; first compound 0.08 µM) of 1.05, a relative viability (A-427; first compound 0.8 µM) of 1.11 and a relative viability (A-427; first compound 2.53 µM) of 0.978. It also gave a relative viability (A-427; first compound 8 µM) of 0.904, a relative viability (NCI-H838; first compound 0.08 µM) of 1.38 and a relative viability (NCI-H838; first compound 0.8 µM) of 1.12. For the same molecule, the relative viability (NCI-H838; first compound 2.53 µM) was 0.72, the relative viability (NCI-H838; first compound 8 µM) was 0.936 and the relative viability (NCI-H2228; first compound 0.08 µM) was 0.939. For the same molecule, the relative viability (NCI-H2228; first compound 0.8 µM) was 1.03, the relative viability (NCI-H2228; first compound 2.53 µM) was 1.29 and the relative viability (NCI-H2228; first compound 8 µM) was 1.26. For the same molecule, the relative viability (LOU-NH91; first compound 0.08 µM) was 0.554, the relative viability (LOU-NH91; first compound 0.8 µM) was 0.578 and the relative viability (LOU-NH91; first compound 2.53 µM) was 0.504. The relative viability (LOU-NH91; first compound 8 µM) was 0.509, the relative viability (SW 1573; first compound 0.08 µM) was 1.26 and the relative viability (SW 1573; first compound 0.8 µM) was 1.29. It also gave a relative viability (SW 1573; first compound 2.53 µM) of 1.2, a relative viability (SW 1573; first compound 8 µM) of 1.27 and a relative viability (RERF-LC-KJ; first compound 0.08 µM) of 0.984. The relative viability (RERF-LC-KJ; first compound 0.8 µM) was 1.31, the relative viability (RERF-LC-KJ; first compound 2.53 µM) was 1.3 and the relative viability (RERF-LC-KJ; first compound 8 µM) was 1.19. It also gave a relative viability (NCI-H460; first compound 0.08 µM) of 0.961, a relative viability (NCI-H460; first compound 0.8 µM) of 1.27 and a relative viability (NCI-H460; first compound 2.53 µM) of 1.38. It also gave a relative viability (NCI-H460; first compound 8 µM) of 1.19, a relative viability (NCI-H1666; first compound 0.08 µM) of 0.655 and a relative viability (NCI-H1666; first compound 0.8 µM) of 1.05. For the same molecule, the relative viability (NCI-H1666; first compound 2.53 µM) was 0.922, the relative viability (NCI-H1666; first compound 8 µM) was 0.829 and the relative viability (NCI-H1993; first compound 0.08 µM) was 1.16. The relative viability (NCI-H1993; first compound 0.8 µM) was 1.14, the relative viability (NCI-H1993; first compound 2.53 µM) was 1.22 and the relative viability (NCI-H1993; first compound 8 µM) was 1.08. For the same molecule, the relative viability (NCI-H1915; first compound 0.08 µM) was 0.951, the relative viability (NCI-H1915; first compound 0.8 µM) was 1.02 and the relative viability (NCI-H1915; first compound 2.53 µM) was 1.13. The relative viability (NCI-H1915; first compound 8 µM) was 0.998, the relative viability (PC-3 [JPC-3]; first compound 0.08 µM) was 0.831 and the relative viability (PC-3 [JPC-3]; first compound 0.8 µM) was 0.908. For the same molecule, the relative viability (PC-3 [JPC-3]; first compound 2.53 µM) was 0.927, the relative viability (PC-3 [JPC-3]; first compound 8 µM) was 0.806 and the relative viability (NCI-H520; first compound 0.08 µM) was 0.848. For the same molecule, the relative viability (NCI-H520; first compound 0.8 µM) was 0.255, the relative viability (NCI-H520; first compound 2.53 µM) was 0.668 and the relative viability (NCI-H520; first compound 8 µM) was 0.511. It also gave a relative viability (IA-LM; first compound 0.08 µM) of 0.769, a relative viability (IA-LM; first compound 0.8 µM) of 0.904 and a relative viability (IA-LM; first compound 2.53 µM) of 0.913. It also gave a relative viability (IA-LM; first compound 8 µM) of 0.381, a relative viability (NCI-H1650; first compound 0.08 µM) of 0.191 and a relative viability (NCI-H1650; first compound 0.8 µM) of 0.189. The relative viability (NCI-H1650; first compound 2.53 µM) was 0.203, the relative viability (NCI-H1650; first compound 8 µM) was 0.213 and the relative viability (NCI-H1355; first compound 0.08 µM) was 1.16. It also gave a relative viability (NCI-H1355; first compound 0.8 µM) of 1.24, a relative viability (NCI-H1355; first compound 2.53 µM) of 1.21 and a relative viability (NCI-H1355; first compound 8 µM) of 1.02. It also gave a relative viability (EKVX; first compound 0.08 µM) of 0.976, a relative viability (EKVX; first compound 0.8 µM) of 0.936 and a relative viability (EKVX; first compound 2.53 µM) of 1.14. The relative viability (EKVX; first compound 8 µM) was 1.13, the relative viability (NCI-H2347; first compound 0.08 µM) was 1.15 and the relative viability (NCI-H2347; first compound 0.8 µM) was 1.1. For the same molecule, the relative viability (NCI-H2347; first compound 2.53 µM) was 1.15, the relative viability (NCI-H2347; first compound 8 µM) was 1.05 and the relative viability (LCLC-97TM1; first compound 0.08 µM) was 0.812. The relative viability (LCLC-97TM1; first compound 0.8 µM) was 0.774, the relative viability (LCLC-97TM1; first compound 2.53 µM) was 0.29 and the relative viability (LCLC-97TM1; first compound 8 µM) was 0.907. The relative viability (BEN; first compound 0.08 µM) was 0.85, the relative viability (BEN; first compound 0.8 µM) was 1.04 and the relative viability (BEN; first compound 2.53 µM) was 0.941. It also gave a relative viability (BEN; first compound 8 µM) of 0.899, a relative viability (NCI-H23; first compound 0.08 µM) of 0.971 and a relative viability (NCI-H23; first compound 0.8 µM) of 1.06. For the same molecule, the relative viability (NCI-H23; first compound 2.53 µM) was 1.19 and the relative viability (NCI-H23; first compound 8 µM) was 1.23.
